Results as given in patent US20250304537A1 (Repare Therapeutics Inc., priority 2022, published 2025).
pIC50: −log10 of the molar value. Read-outs that look alike come from different tables or passages of the source.

What was measured:
[1] = molecular target: recombinant human Myt1 (full length PKMYT1) (Homo sapiens (Human), UniProt Q99640); test: Recombinant human Myt1 kinase assay (ADP-Glo); format: biochemical; conditions: 10 μM ATP
Procedure, shortened: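 ADP-Glo luminescence measured ATP hydrolysis by recombinant full-length PKMYT1 (18 nM) after 60 min at 30 °C with 10 μM ATP. Compounds in 0.5% DMSO were added to the enzyme 15 min before ATP, at 22 °C, in HEPES/MgCl2/MnCl2 buffer. IC50 and percent maximal inhibition were derived.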

[2] = system: PKMYT1 (CDK1 pThr14) in FUOV1 cells; test: PKMYT1 cell-based activity assay, CDK1 pThr14 AlphaLISA in FUOV1 cells; conditions: read-out: FUOV-1 CDK1 pThr14 IC50
Procedure, shortened: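 IC50 was derived from AlphaLISA signal (excitation 680 nm, emission 615 nm) for phospho-Thr14 CDK1 in lysates. The detection antibodies were rabbit anti-pThr14 and mouse anti-total CDK1, each at 5 nM. FUOV1 ovarian cells were exposed to compound for 2 hours before lysis.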

Sequence of recombinant human Myt1 (full length PKMYT1) (Q99640 whole entry): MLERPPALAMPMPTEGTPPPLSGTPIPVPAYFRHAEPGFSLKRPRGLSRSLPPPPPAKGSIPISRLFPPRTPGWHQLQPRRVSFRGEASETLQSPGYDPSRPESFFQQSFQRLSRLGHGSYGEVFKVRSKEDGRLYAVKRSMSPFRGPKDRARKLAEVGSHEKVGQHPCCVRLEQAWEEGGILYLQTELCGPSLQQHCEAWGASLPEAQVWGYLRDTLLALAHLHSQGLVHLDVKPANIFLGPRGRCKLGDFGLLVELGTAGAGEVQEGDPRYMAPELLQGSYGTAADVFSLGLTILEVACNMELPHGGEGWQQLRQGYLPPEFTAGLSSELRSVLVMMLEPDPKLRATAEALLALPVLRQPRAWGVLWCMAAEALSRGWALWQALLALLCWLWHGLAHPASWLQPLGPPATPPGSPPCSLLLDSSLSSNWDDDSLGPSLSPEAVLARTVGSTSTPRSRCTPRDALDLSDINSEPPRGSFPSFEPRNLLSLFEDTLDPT

Row | SMILES | pIC50 [1] | pIC50 ([2]; 2 h, 2 h compound incubation) | pIC50 ([2]; 2 h, 2 h incubation) | pIC50 ([2]; 2 h, 2 hours with compound) | pIC50 ([2]; 2 h incubation)
1 | Cc1ccc2[nH]ncc2c1-c1nc(-c2cccnc2Nc2cccc(F)c2)nc(C(N)=O)c1N [Compound 600] | 8.00 | 6.05 | – | – | –
2 | Cc1ccc(O)c(C)c1-c1cc(-c2cccc(N3CCOCC3)c2)nc(C(N)=O)c1N [Compound 42] | 8.15 | – | 6.77 | – | –
3 | Cc1ccc2[nH]ncc2c1-c1nc(Nc2ncccc2-c2ccncn2)nc(C(N)=O)c1N [Compound 818, 5-amino-6-(5-methyl-1H-indazol-4-yl)-2-((3-(pyrimidin-4-yl)pyridin-2-yl)amino)pyrimidine-4-carboxamide] | 5.41 | – | – | < 5.00 | –
4 | Cc1cccc(Nc2ncccc2-c2nc(C(N)=O)c(N)c(-c3c(C)ccc4[nH]ncc34)n2)n1 [Compound 626] | 8.30 | 6.28 | – | – | –
5 | Cc1ccc2[nH]ncc2c1-c1nc(-c2cccc(C#N)c2)nc(C(N)=O)c1N [Compound 131, 5-amino-2-(3-cyanophenyl)-6-(5-methyl-1H-indazol-4-yl)pyrimidine-4-carboxamide] | 7.66 | – | 5.86 | – | –
6 | Cc1ccc2[nH]ncc2c1-c1nc(-c2ccccc2NC(=O)C23CC(F)(C2)C3)nc(C(N)=O)c1N [Compound 448] | 8.15 | 6.95 | – | – | –
7 | Cc1ccc(O)c(C)c1-c1cc(-c2cc(C(F)(F)F)ccn2)nc(C(N)=O)c1N [Compound 67] | 8.70 | – | 6.57 | – | –
8 | Cc1ccc2[nH]ncc2c1-c1cc(-c2cccc(O[C@@H]3CCOC3)n2)nc(C(N)=O)c1N (atropisomer, axis not shown) [Compound 227, (R)-5-amino-4-(5-methyl-1H-indazol-4-yl)-6′-(((R)-tetrahydrofuran-3-yl)oxy)-[2,2′-bipyridine]-6-carboxamide] | 8.70 | – | 6.70 | – | –
9 | Cc1ccc2[nH]ncc2c1-c1cc(-c2ccccn2)nc(C(N)=O)c1N [Compound 87] | 7.96 | – | 6.25 | – | –
10 | Cc1ccc2[nH]ncc2c1-c1cc(-c2ccnc(OCCc3ncc[nH]3)n2)nc(C(N)=O)c1N [Compound 240] | 8.10 | – | 6.00 | – | –
11 | Cc1ccc(O)c(C)c1-c1cc(-c2ccncn2)nc(C(N)=O)c1N [Compound 79] | 8.10 | – | – | – | 7.05
12 | Cc1ccc2[nH]ncc2c1-c1nc(-c2ccccc2NC2CCC(F)(F)CC2)nc(C(N)=O)c1N [Compound 453] | 7.92 | 6.50 | – | – | –
13 | Cc1ccc2[nH]ncc2c1-c1nc(-c2cccnc2N[C@@H]2CCO[C@@H](C)C2)nc(C(N)=O)c1N [Compound 605] | 8.40 | 6.55 | – | – | –
14 | Cc1ccc(O)cc1-c1nc(-c2ccccc2)nc(C(N)=O)c1N [Compound 2, 5-amino-6-(5-hydroxy-2-methylphenyl)-2-phenylpyrimidine-4-carboxamide] | 7.96 | – | 6.29 | – | –
15 | Cc1ccc2[nH]ncc2c1-c1nc(-c2ccccc2NC(=O)C(C)(C)C)cc(C(N)=O)c1N [Compound 398] | 8.15 | 7.55 | – | – | –
16 | Cc1ccc2[nH]ncc2c1-c1nc(-c2cccnc2NCC(F)F)nc(C(N)=O)c1N [Compound 625] | 8.30 | 7.38 | – | – | –
17 | Cc1ccncc1Nc1ncccc1-c1nc(C(N)=O)c(N)c(-c2c(C)ccc3[nH]ncc23)n1 [Compound 599] | 6.44 | 6.20 | – | – | –
18 | CC1(C(=O)Nc2ccccc2-c2nc(C(N)=O)c(N)c(-c3c(Cl)ccc4[nH]ncc34)n2)CC1 [Compound 410] | 8.40 | 8.05 | – | – | –
19 | COCC(=O)Nc1ccccc1-c1nc(C(N)=O)c(N)c(-c2c(C)ccc3[nH]ncc23)n1 [Compound 332, 5-amino-2-(2-(2-methoxyacetamido)phenyl)-6-(5-methyl-1H-indazol-4-yl)pyrimidine-4-carboxamide] | 8.22 | – | 7.25 | – | –
20 | COC(C)(C)COc1nccc(-c2cc(-c3c(C)ccc4[nH]ncc34)c(N)c(C(N)=O)n2)n1 [Compound 327] | 8.22 | – | 6.45 | – | –
21 | Cc1ccc2[nH]ncc2c1-c1nc(-c2cccnc2NC2CCOCC2C)nc(C(N)=O)c1N (stereo not drawn) [Compound 606] | 8.70 | 7.17 | – | – | –
22 | Cc1ccc2[nH]ncc2c1-c1nc(-c2cccnc2Nc2cscn2)nc(C(N)=O)c1N [Compound 894] | 7.77 | – | – | 6.35 | –
23 | Cc1ccc2[nH]ncc2c1-c1nc(-c2cccnc2NCC2CCCCO2)nc(C(N)=O)c1N (stereo not drawn) [Compound 604] | 7.80 | 6.10 | – | – | –
24 | Cc1ccc2[nH]ncc2c1-c1nc(-c2cccnc2Nc2cccc(C(F)(F)F)c2)nc(C(N)=O)c1N [Compound 608] | 7.54 | 5.86 | – | – | –
25 | Cc1ccc2[nH]ncc2c1-c1nc(-c2ccccc2NC(=O)C2(C)CCC2)nc(C(N)=O)c1N [Compound 416] | 8.15 | 7.66 | – | – | –
26 | Cc1ccc2[nH]ncc2c1-c1nc(-c2cn(C)nc2NC(C)C)nc(C(N)=O)c1N [Compound 904] | 8.40 | – | – | 6.83 | –
27 | Cc1ccc2[nH]ncc2c1-c1nc(-c2cc(C(F)(F)F)ccc2NC(=O)C2(C)CC2)nc(C(N)=O)c1N [Compound 445] | 7.42 | 5.99 | – | – | –

Row | SMILES | pIC50 [1] | pIC50 ([2]; 2 h, 2 h compound incubation) | pIC50 ([2]; 2 h, 2 h incubation) | pIC50 ([2]; 2 h, 2 hours with compound) | pIC50 ([2]; 2 h incubation)
28 | Cc1ccc(O)c(C)c1-c1cc(-c2nc3ccccc3s2)nc(C(N)=O)c1N [Compound 58] | 8.30 | – | – | – | 6.41
29 | Cc1ccc(O)c(C)c1-c1cc(-c2ccns2)nc(C(N)=O)c1N [Compound 38] | 8.52 | – | 7.22 | – | –
30 | Cc1ccc(O)cc1-c1nc(-c2ccnc(N)c2)nc(C(N)=O)c1N [Compound 4] | 8.00 | – | 6.03 | – | –
31 | Cc1ccc2[nH]ncc2c1-c1nc(-c2ccccc2NC(=O)C2(C(F)(F)F)CC2)nc(C(N)=O)c1N [Compound 405] | 8.40 | 7.03 | – | – | –
32 | Cc1ccc(O)c(C)c1-c1cc(-c2cncs2)nc(C(N)=O)c1N [Compound 90] | 8.52 | – | – | – | 7.24
33 | Cc1ccc2[nH]ncc2c1-c1nc(-c2cccnc2NC[C@H]2CCCO2)nc(C(N)=O)c1N [Compound 601] | 8.52 | 6.33 | – | – | –
34 | Cc1ccc2[nH]ncc2c1-c1cc(-c2ccnc(Nc3ccncc3)n2)nc(C(N)=O)c1N [Compound 200] | 7.96 | – | 6.81 | – | –
35 | Cc1ccc2[nH]ncc2c1-c1nc(-c2cccnc2Nc2ccccc2)nc(C(N)=O)c1N [Compound 607] | 8.22 | 6.50 | – | – | –
36 | Cc1cccc(NC(=O)C2(C)CC2)c1-c1nc(C(N)=O)c(N)c(-c2c(C)ccc3[nH]ncc23)n1 [Compound 457] | 6.29 | < 5.00 | – | – | –
37 | Cc1ccc2[nH]ncc2c1-c1nc(-c2ccc(F)cc2Nc2ncccc2Cl)nc(C(N)=O)c1N [Compound 611] | 7.68 | 7.66 | – | – | –
38 | Cc1ccc2[nH]ncc2c1-c1cc(-c2ccnc(N3CCOCC3)n2)nc(C(N)=O)c1N [Compound 198] | 8.05 | – | 6.01 | – | –
39 | NC(=O)c1nc(-c2ccccc2)nc(-c2cc(F)cc3[nH]ncc23)c1N [Compound 122] | 6.86 | – | 6.09 | – | –
40 | Cc1ccc2[nH]ncc2c1-c1nc(-c2cccnc2Nc2ccccc2F)nc(C(N)=O)c1N [Compound 610] | 8.00 | 6.40 | – | – | –
41 | Cc1ccc2[nH]ncc2c1-c1nc(-c2ccccc2NC(=O)C2(C)CC2(Cl)Cl)nc(C(N)=O)c1N (stereo not drawn) [Compound 463] | 8.10 | 6.56 | – | – | –
42 | Cc1ccc2[nH]ncc2c1-c1nc(-c2cc(F)ccc2NCC(F)F)nc(C(N)=O)c1N [Compound 421] | 8.40 | 7.40 | – | – | –
43 | Cc1ccc2[nH]ncc2c1-c1nc(-c2cc(F)c(F)cc2NS(=O)(=O)C2CC2)nc(C(N)=O)c1N [Compound 480] | 8.30 | 6.80 | – | – | –
44 | Cc1ccc2[nH]ncc2c1-c1nc(-c2ccccc2Nc2ncccn2)nc(C(N)=O)c1N [Compound 449, 5-amino-6-(5-methyl-1H-indazol-4-yl)-2-(2-(pyrimidin-2-ylamino)phenyl)pyrimidine-4-carboxamide] | 8.15 | 7.64 | – | – | –
45 | Cc1ccc2[nH]ncc2c1-c1nc(-c2ccccc2NC(=O)C2(C)COC2)nc(C(N)=O)c1N [Compound 408] | 8.15 | 8.05 | – | – | –
46 | Cc1ccc2[nH]ncc2c1-c1nc(-c2cccc(N3CCOCC3)c2)nc(C(N)=O)c1N [Compound 102] | 7.72 | – | 6.34 | – | –
47 | Cc1ccc2[nH]ncc2c1-c1nc(-c2ccccc2NC2CC2)nc(C(N)=O)c1N [Compound 476] | 8.52 | 7.60 | – | – | –
48 | Cc1ccc(O)c(C)c1-c1cc(-c2ccncn2)nc(C(N)=O)c1N [Compound 89] | 8.52 | – | – | – | 7.80
49 | Cc1ccc2[nH]ncc2c1-c1cc(-c2ccnc(OCCc3cc[nH]n3)n2)nc(C(N)=O)c1N [Compound 265] | 8.40 | – | 6.41 | – | –
50 | Cc1ccc2[nH]ncc2c1-c1nc(-c2cccnc2NC2CC(OC(F)F)C2)nc(C(N)=O)c1N (stereo not drawn) [Compound 893] | > 8.52 | – | – | 6.68 | –
51 | Cc1ccc2[nH]ncc2c1-c1nc(-c2cccc3ncsc23)nc(C(N)=O)c1N [Compound 380] | 8.22 | – | 6.11 | – | –
52 | Cc1ccc2[nH]ncc2c1-c1cc(-c2cccc(N[C@H]3C[C@H](O)C3)n2)nc(C(N)=O)c1N [Compound 322] | 8.00 | – | 6.79 | – | –
53 | Cc1ccc2[nH]ncc2c1-c1nc(-c2cc(F)c(F)cc2NC2CCN(C)CC2)nc(C(N)=O)c1N [Compound 485] | 8.15 | 7.28 | – | – | –
54 | Cc1ccc2[nH]ncc2c1-c1nc(-c2cc(Cl)ccc2NC(=O)C2(C)CC2)nc(C(N)=O)c1N [Compound 439] | 8.22 | 7.38 | – | – | –
